Experimental data from US20180086789A1, “PHARMACEUTICAL COMPOUND” (VALLAURIX PTE. LTD., priority 2015, published 2018).
Non-standard residues stand in square brackets, D forms with d. hArg = N=C(N)NCCCC[C@H](N)C(=O)O; Nle = CCCC[C@H](N)C(=O)O

How the values were obtained:
[1] = target: T1, MC1R (Homo sapiens, UniProt Q01726); assay: Effects on cAMP in human melanocyte culture 1753 (radioimmunoassay); type: cell-based
T1 construct: human melanocyte culture coded 1753 that expressed functional MC1R; endogenous in cells; host or cells: human melanocyte culture coded 1753
T1 sequence (Q01726 whole entry): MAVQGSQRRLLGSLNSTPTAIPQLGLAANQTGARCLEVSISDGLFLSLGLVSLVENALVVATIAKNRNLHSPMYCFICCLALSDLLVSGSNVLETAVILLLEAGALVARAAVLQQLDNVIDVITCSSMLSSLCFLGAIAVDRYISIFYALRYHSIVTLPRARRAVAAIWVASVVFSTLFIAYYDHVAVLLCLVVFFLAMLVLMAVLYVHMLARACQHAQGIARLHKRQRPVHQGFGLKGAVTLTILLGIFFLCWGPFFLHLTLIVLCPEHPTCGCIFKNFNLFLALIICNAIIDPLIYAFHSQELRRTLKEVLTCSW
Experimental: The compound with formula structure Ac-Nle-Glu-His-D-Phe-homoArg-Trp-NH2 of the invention was tested using human melanocyte culture coded 1753 that expressed functional MC1R. The melanocytes were plated at a density of 0.3*10^6 cells/well. After 48 hours, the melanocytes were treated with different compound concentrations (10^−12 to 10^−7 M) for 1 hour. A control without compound was included in the test. […] The reaction was stopped by addition of 50 μl 1 N HCl and the supernatant in each well was used to measure cAMP using a radioimmunoassay as described by Suzuki 1996 (Suzuki I, Cone R D, Im S, Nordlund J J, Abdel-Malek Z: “Binding of melanotropic hormones to the MC1 receptor on human melanocytes stimulates proliferation and melanogenesis”. Endocrinology 137: 1627-1633, 1996). Duplicate samples from each well were assayed with triplicate wells included in each group. The mean of 6 cAMP measurements per group was expressed as % of the control group. Statistical analysis was carried out using ANOVA followed by Newman Kuels test. In some cases, unpaired t-test was used.

[2] = test system: tyrosinase; assay: Effects on tyrosinase activity in human melanocyte culture 1750 (3H-labeled tyrosine); type: cell-based
Experimental: The compound with formula structure Ac-Nle-Glu-His-D-Phe-homoArg-Trp-NH2 of the invention was tested using human melanocyte culture coded 1750 that expressed functional MC1R. The melanocytes were plated at a density of 0.3*10^6 cells onto 60 mm dishes (triplicate dishes/group). After 48 hours, the melanocytes were treated every other day for a total of six days with different doses (10^−12 M to 10^−7 M) of the compound. A control without compound was included in the test. […] On treatment day 5, ^3H-labeled tyrosine, the substrate for tyrosinase, was added and 24 hours later, the supernatant was saved to be assayed for tyrosinase activity as described by Suzuki et al (see example 2). Duplicate samples from each were assayed, with triplicate dishes included in each group. Cell number in each dish was counted, and tyrosinase activity was expressed as dpm/10^6 cells and as % of the control. Statistical analysis was carried out using ANOVA followed by Newman Kuels test.
It will be understood that this tyrosinase activation test relates to a late event after MC1R activation, compared to the earlier secondary messenger effect of the above cAMP test. As pointed out above, activity of tyrosinase requires days of treatment.

[3] = concentrations from 10^−10 M to 10^−7M

cAMP, highest efficacy, expressed as % of the control group ([1]; 10^−7M, 1 hour treatment, human melanocyte culture 1753 expressing functional MC1R): 216%
tyrosinase activity, highest efficacy, % of the control ([2]; 10^−8 M, six days of treatment, human melanocyte culture 1750 expressing functional MC1R): 227%
tyrosinase activity, efficacy, % of the control ([2]; 10^−9 M, six days of treatment, human melanocyte culture 1750 expressing functional MC1R): 198%
Substance: Ac-[Nle]EH[dF][hArg]W-NH2 [compound of the invention]
cAMP results statistically different compared to the control (p<0.05) [1, 3]: statistically different compared to the control
tyrosinase activity results statistically different compared to the control (p<0.05) [2, 3]: statistically different compared to the control
